Assay results from patent publication US10435372B2, “Use of phenylpyrazolin-3-carboxylates for improving plant yield” (BAYER INTELLECTUAL PROPERTY GMBH, priority 2011, dated 2019).

Columns and labels:
Assay type in all cases: in vivo
sugarbeets [1] = experiment: Field trial: emergence of sugarbeets, seed treatment with MPR; conditions: seed treatment 0.015 mg ai/seed, 28 days after planting
Excerpt: (§1) The trials have been carried out under natural field conditions (plot trials, 10 square meter plots, 2-4 replications).
(§2) The applications have been done with seed treatment, pre- or post-emergence treatments straight (alone, 1 application) or sequential treatments e.g. seed treatment followed by pre-emergence and/or post-emergence spray applications. The pre- or post-emergence applications were made with spray applications using 100-300 l/water per hectare. The growth stage of the crops species at the time of application are reported in the result tables. The dose rates of the herbicidal active ingredients applied alone respective in sequential application are also described in the result tables.
(§3) The assessments have been done via visual ratings (0-100% scale) or counting. The trials have been harvested after crops reached the full maturity. After the harvest the total weight of kernels/seeds/beets per plot was measured. The results are reported as means over 2-4 replications. The time between applications and assessments or countings/harvest are described in the result tables as well.
(§4) The active ingredients have been applied to the untreated, dry seeds together with a carrier. After a short period of time to let the seeds dry, they were ready to be sown in the pot or field using standard equipments.

winter wheat [2] = experiment: Field trial: grain yield of winter wheat, postemergence treatment with mefenpyr-diethyl
Excerpt: as §1, §2, §3

sugarbeets [3] = experiment: Field trial: sugar yield of sugarbeets, sequential application of mefenpyr-diethyl; conditions: 0.015 mg ai/seed fb 3 × 50 g ai/ha post
Excerpt: as §1, §2, §3, §4

[4] = test system: winter oilseed rape (canola); experiment: Field trial: grain yield of winter oilseed rape (canola), sequential application of mefenpyr-diethyl; conditions: 3 g ai/kg seed fb 3 × 50 g ai/ha post
Excerpt: as §1, §2, §3, §4

spring wheat [5] = experiment: Field trial: grain yield of spring wheat, postemergence treatment with mefenpyr-diethyl
Excerpt: as §1, §2, §3

durum wheat = experiment: Field trial: grain yield of durum wheat, seed treatment with mefenpyr-diethyl
Excerpt: as §1, §2, §3, §4

winter barley = experiment: Field trial: grain yield of winter barley, sequential application of MPR; conditions: 0.5 g ai/kg seed fb 4 × 50 g ai/ha post
Excerpt: as §1, §2, §3, §4

winter wheat [6] = experiment: Field trial: emergence (number of plants) of winter wheat, pre-emergence application of mefenpyr-diethyl; conditions: 11 days after application
Excerpt: as §1, §2, §3

sugarbeet = experiment: Field trial: beet yield of sugarbeet, sequential application of mefenpyr-diethyl; conditions: 0.015 mg ai/seed fb 3 × 50 g ai/ha post
Excerpt: as §1, §2, §3, §4

spring wheat [7] = experiment: Field trial: grain yield of spring wheat, postemergence treatment with MPR + epoxiconazole; conditions: EPC 125, MPR + EPC 100 + 125 g ai/ha
Excerpt: (§5) The applications have been done with seed treatment, pre- or post-emergence treatments straight (alone, 1 application) or sequential treatments e.g. seed treatment followed by pre-emergence and/or post-emergence spray applications. The pre- or post-emergence applications were made with spray applications using 100-300 l/water per hectare. The growth stage of the crops species at the time of application are reported in the result tables. The dose rates of the herbicidal active ingredients applied alone respective in sequential application are also described in the result tables. The assessments have been done via visual ratings (0-100% scale) or counting. The trials have been harvested after crops reached the full maturity. After the harvest the total weight of kernels/seeds/beets per plot was measured. The results are reported as means over 2-4 replications. The time between applications and assessments or countings/harvest are described in the result tables as well.

[8] = test system: spring oilseed rape (canola); experiment: Field trial: grain yield of spring oilseed rape (canola), postemergence treatment with MPR + tebuconazole; conditions: TBC 150, MPR + TBC 100 + 150 g ai/ha
Excerpt: as §5

[9] = grain yield relative to UTC = 100%

CCOC(=O)C1=NN(c2ccc(Cl)cc2Cl)C(C)(C(=O)OCC)C1 (stereo not drawn) [MPR, ethyl 1-(2,4-dichlorophenyl)-5-(ethoxycarbonyl)-5-methyl-2-pyrazoline-3-carboxylate]
Relative (sugarbeets [1]; emerged plants relative to UTC = 100%): 109.2% | Difference (%) vs. UTC (sugarbeets [1]; emerged plants): +9.2% | plants/18 row meters (emergence, counting) (sugarbeets [1]; sugarbeets, UTC 65): 71 plants/18 row meters | Relative % (winter wheat [2]; grain yield relative to UTC = 100%, 100 g ai/ha post-emergence, 84 days after application): 106.3% | Difference (%) vs. UTC (winter wheat [2]; grain yield, 100 g ai/ha post-emergence, 84 days after application): +6.3% | Yield (grain yield at harvest) (winter wheat [2]; winter wheat, 100 g ai/ha post-emergence spring, beginning of stem elongation, harvest 84 days after application, UTC 9.52): 10.12 t/ha | Relative (sugarbeets [3]; sugar yield relative to UTC = 100%): 106.1% | Difference (%) vs. UTC (sugarbeets [3]; sugar yield): +6.1% | Sugar Yield (by weight at harvest) (sugarbeets [3]; sugarbeets, harvest 162 days after the last application, UTC 5.70): 6.05 t/ha | Relative [4, 9]: 107% | Difference (%) vs. UTC ([4]; grain yield): +7% | Yield (grain yield at harvest) ([4]; winter oilseed rape, harvest 102 days after the last application, UTC 3.60): 3.85 t/ha | Relative % (spring wheat [5]; grain yield relative to UTC = 100%, 100 g ai/ha post-emergence, 72 days after application): 119.2% | Difference (%) vs. UTC (spring wheat [5]; grain yield, 100 g ai/ha post-emergence, 72 days after application): +19.2% | Yield (grain yield at harvest) (spring wheat [5]; spring wheat, 100 g ai/ha post-emergence spring, flag leaf/beginning of ear heading, harvest 72 days after application, UTC 6.06): 7.16 t/ha | Yield (grain yield at harvest) (durum wheat; durum wheat, seed treatment 0.5 g ai/kg seed prior planting, harvest 158 days after application, UTC 4.45): 4.97 t/ha | Relative % (durum wheat; grain yield relative to UTC = 100%, seed treatment 0.5 g ai/kg seed): 111.7% | Difference (%) vs. UTC (durum wheat; grain yield, seed treatment 0.5 g ai/kg seed): +11.7% | Relative (winter barley; [9]): 104% | Difference (%) vs. UTC (winter barley; grain yield): +4% | Yield (grain yield at harvest) (winter barley; winter barley, harvest 74 days after the last application, UTC 10.01): 10.45 t/ha | Relative % (winter wheat [6]; number of plants relative to UTC = 100%, pre-emergence, dose 100): 107.4% | Difference (%) vs. UTC (winter wheat [6]; number of plants, pre-emergence, dose 100): +7.4% | Yield [plants/row meter] (number of plants, increased emergence) (winter wheat [6]; winter wheat, pre-emergence treatment, dose 100 g ai/ha, UTC 34.2): 36.8 plants/row meter | Relative (sugarbeet; beet yield relative to UTC = 100%): 108.1% | Difference (%) vs. UTC (sugarbeet; beet yield): +8.1% | Yield (yield of beets by weight at harvest) (sugarbeet; sugarbeet, harvest 162 days after last application, UTC 58.7): 63.5 t/ha

Fc1ccc([C@]2(Cn3cncn3)O[C@H]2c2ccccc2Cl)cc1 (racemic) [EPC, epoxiconazole]
Relative % (spring wheat [7]; [9]): 109.7% | Difference (%) vs. UTC (spring wheat [7]; grain yield): +9.7% | Yield (grain yield at harvest) (spring wheat [7]; spring wheat, post-emergence spring, flag leaf sheath opening, harvest 55 days after application, UTC 1.84): 2.02 t/ha

CC(C)(C)C(O)(CCc1ccc(Cl)cc1)Cn1cncn1 (stereo not drawn) [TBC, tebuconazole]
Relative % [8, 9]: 102% | Difference (%) vs. UTC ([8]; grain yield): +2% | Yield (grain yield at harvest) ([8]; spring oilseed rape, post-emergence spring, beginning of flowering, harvest 92 days after application, UTC 3.91): 3.98 t/ha
